Reference: US20100179158A1, “INHIBITORS OF CYCLIC AMP PHOSPHODIESTERASES” (priority 2007, published 2010)

Legend:
PDE4A1 = target: T1, PDE4A1 (Mus musculus, UniProt O89084); assay: Fission yeast 5FOA growth assay, strain expressing PDE4A1; format: cell-based, murine; details: 5FOA growth screen; for 2 Assay (2 uM), PDE 4A1: 2 uM compound; for 1 Assay (20 uM), PDE 4A1: 20 uM compound
T1 construct: targets used in the assays are full-length proteins (as opposed to simply the catalytic domain); expressed in transfected cells; host or cells: Schizosaccharomyces pombe, gene integrated at the cgs2 locus
T1 sequence (O89084 1-610 isoform O89084-2): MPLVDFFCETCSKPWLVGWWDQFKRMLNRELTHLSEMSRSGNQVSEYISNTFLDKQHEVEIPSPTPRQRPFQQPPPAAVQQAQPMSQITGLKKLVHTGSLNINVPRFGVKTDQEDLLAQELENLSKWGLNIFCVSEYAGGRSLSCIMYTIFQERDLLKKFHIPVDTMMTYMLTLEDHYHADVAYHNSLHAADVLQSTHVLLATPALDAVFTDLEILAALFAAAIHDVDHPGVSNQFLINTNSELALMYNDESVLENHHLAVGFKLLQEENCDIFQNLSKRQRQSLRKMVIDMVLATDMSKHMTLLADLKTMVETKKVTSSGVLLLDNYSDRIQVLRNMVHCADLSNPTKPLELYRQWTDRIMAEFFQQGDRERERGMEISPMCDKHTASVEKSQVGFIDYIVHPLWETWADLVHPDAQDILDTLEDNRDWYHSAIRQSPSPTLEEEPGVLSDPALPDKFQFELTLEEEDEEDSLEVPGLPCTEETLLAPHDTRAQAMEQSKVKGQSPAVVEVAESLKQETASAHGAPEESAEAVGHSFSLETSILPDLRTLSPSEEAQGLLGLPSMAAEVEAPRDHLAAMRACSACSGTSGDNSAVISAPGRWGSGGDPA
Protocol: (§1) High throughput drug screens were carried out at the Broad Institute's Chemical Biology Program screening facility (Broad Institute, Cambridge, Mass.). Depending upon the strain, cultures were pregrown to exponential phase in EMM complete medium containing from 0.5 to 2.5 mM cAMP to repress fbp1-ura4 transcription. […] Starting cell concentrations ranged from 0.5×10^5 to 4×10^5 cells/ml depending on the screening strain. […] Other positive control dishes contained 5 mM cAMP in the 5FOA medium. Cultures were grown for 48 hours at 30° C., sealed in an airtight container with moist paper towels to prevent evaporation. Optical densities (OD600) of cultures were measured using a microplate reader. Bioinformatic analysis of the results to determine composite Z scores was performed as previously described^30, 31.
(§2) Cells were pregrown in EMM medium [MP Biomedicals (Solon, OH), 3% glucose, filter-sterilized to avoid carmelization, which would introduce variability into the optical density of the medium] containing from 0 mM to 2.5 mM cAMP (or either 0.5 mM or 1.0 mM cGMP). This was to repress expression of the fbp1-ura4 reporter prior to exposure of cells to 5FOA medium. Cells were grown at 30° C. to exponential phase (approximately 10^7 cells/ml). […] Starting cell concentrations ranged from 0.5×10^5 to 4×10^5 cells/ml depending on the screening strain. […] Other positive control dishes contained 5 mM cAMP in the 5FOA medium for PDEs that lack appropriate control compounds. Cultures were grown for 48 hours at 30° C., sealed in an airtight container with moist paper towels to prevent evaporation. Optical densities (OD600) of cultures were measured using a microplate reader. Bioinformatic analysis of the results to determine composite Z scores was performed as previously described (1, 3).

PDE4B3 = target: T2, PDE4B3 (Mus musculus, UniProt Q8VBU5); assay: Fission yeast 5FOA growth assay, strain expressing PDE4B3; format: cell-based, murine; details: 5FOA growth screen; for 2 Assay (2 uM), PDE 4B3: 2 uM compound; for 1 Assay (20 uM), PDE 4B3: 20 uM compound
T2 construct: targets used in the assays are full-length proteins (as opposed to simply the catalytic domain); expressed in transfected cells; host or cells: Schizosaccharomyces pombe, gene integrated at the cgs2 locus
T2 sequence (Q8VBU5 1-721): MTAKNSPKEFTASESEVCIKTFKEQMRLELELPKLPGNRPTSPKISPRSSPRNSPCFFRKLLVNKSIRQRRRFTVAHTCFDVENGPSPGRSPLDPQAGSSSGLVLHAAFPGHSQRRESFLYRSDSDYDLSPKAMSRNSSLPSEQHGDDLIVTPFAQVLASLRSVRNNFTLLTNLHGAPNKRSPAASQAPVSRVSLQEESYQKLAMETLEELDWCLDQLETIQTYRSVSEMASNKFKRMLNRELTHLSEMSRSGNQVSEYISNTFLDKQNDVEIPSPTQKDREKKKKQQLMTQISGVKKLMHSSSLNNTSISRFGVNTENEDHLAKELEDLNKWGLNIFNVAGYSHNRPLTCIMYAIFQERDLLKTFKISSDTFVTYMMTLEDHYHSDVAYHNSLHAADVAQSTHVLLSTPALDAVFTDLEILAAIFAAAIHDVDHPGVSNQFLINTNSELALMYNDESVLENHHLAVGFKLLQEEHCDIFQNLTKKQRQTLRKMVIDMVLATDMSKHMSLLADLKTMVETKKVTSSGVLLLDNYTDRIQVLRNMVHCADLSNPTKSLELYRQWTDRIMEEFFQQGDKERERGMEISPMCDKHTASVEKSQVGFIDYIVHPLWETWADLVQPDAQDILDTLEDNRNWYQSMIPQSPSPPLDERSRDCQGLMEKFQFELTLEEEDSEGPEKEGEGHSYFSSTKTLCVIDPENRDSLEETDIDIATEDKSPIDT
Protocol: as §1, §2

PDE7A = target: T3, PDE7A (Homo sapiens, UniProt Q13946); assay: Fission yeast 5FOA growth assay, strain expressing PDE7A; format: cell-based; details: 5FOA growth screen; for 2 Assay (2 uM), PDE 7A: 2 uM compound; for 1 Assay (20 uM), PDE 7A: 20 uM compound
T3 construct: targets used in the assays are full-length proteins (as opposed to simply the catalytic domain); expressed in transfected cells; host or cells: Schizosaccharomyces pombe, gene integrated at the cgs2 locus
T3 sequence (Q13946 whole entry, the tested form may be a part): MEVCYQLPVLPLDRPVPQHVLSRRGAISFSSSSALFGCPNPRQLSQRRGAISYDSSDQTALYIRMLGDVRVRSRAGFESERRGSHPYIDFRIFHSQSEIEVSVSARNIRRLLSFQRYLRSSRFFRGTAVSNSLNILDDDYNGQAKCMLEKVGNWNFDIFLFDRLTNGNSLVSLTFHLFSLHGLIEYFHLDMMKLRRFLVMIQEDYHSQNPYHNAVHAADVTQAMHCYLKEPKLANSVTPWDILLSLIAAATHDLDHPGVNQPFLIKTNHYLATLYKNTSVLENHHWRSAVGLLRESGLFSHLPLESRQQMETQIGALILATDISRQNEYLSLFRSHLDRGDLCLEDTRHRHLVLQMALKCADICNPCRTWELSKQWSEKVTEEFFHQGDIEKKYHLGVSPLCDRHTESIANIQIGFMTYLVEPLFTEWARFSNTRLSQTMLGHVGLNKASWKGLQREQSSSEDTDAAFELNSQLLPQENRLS
Protocol: Cells were pregrown in EMM medium [MP Biomedicals (Solon, OH), 3% glucose, filter-sterilized to avoid carmelization, which would introduce variability into the optical density of the medium] containing from 0 mM to 2.5 mM cAMP (or either 0.5 mM or 1.0 mM cGMP). This was to repress expression of the fbp1-ura4 reporter prior to exposure of cells to 5FOA medium. Cells were grown at 30° C. to exponential phase (approximately 10^7 cells/ml). Cells were collected by centrifugation and resuspended in 5FOA medium, and 25 μl were transferred to 384-well microtiter dishes (untreated, with flat clear bottoms) that had been pre-filled with 25 μl 5FOA medium and pre-pinned with 100 nl of compounds (stock solutions were generally 10 mM). Starting cell concentrations ranged from 0.5×10^5 to 4×10^5 cells/ml depending on the screening strain. […] Other positive control dishes contained 5 mM cAMP in the 5FOA medium for PDEs that lack appropriate control compounds. Cultures were grown for 48 hours at 30° C., sealed in an airtight container with moist paper towels to prevent evaporation. Optical densities (OD600) of cultures were measured using a microplate reader. Bioinformatic analysis of the results to determine composite Z scores was performed as previously described (1, 3).

SMILES | 2 Assay (2 uM), PDE 4A1 (PDE4A1) | 1 Assay (20 uM), PDE 4A1 (PDE4A1) | 2 Assay (2 uM), PDE 4B3 (PDE4B3) | 1 Assay (20 uM), PDE 4B3 (PDE4B3) | 2 Assay (2 uM), PDE 7A (PDE7A) | 1 Assay (20 uM), PDE 7A (PDE7A)
COC(=O)C1=C(C)N(c2ccccc2Cl)C(=O)/C1=C\c1cccs1 [Compound 27] | 17.41 | 64.18 | 22.05 | −0.26 | 5.07 | 2.34
COC(=O)C1=C(C)N(c2ccc(C(C)C)cc2)C(=O)/C1=C\c1cccs1 [2008, O19] |  | 0.80 ND ND ND ND |  | −2.99 ND ND ND ND |  | 2.78 ND ND ND ND
COC(=O)C1=C(C)N(c2ccccc2F)C(=O)/C1=C\c1cccc(OC)c1O [2008, C21] |  | 18.97 ND ND ND ND |  | 24.16 ND ND ND ND |  | −0.08 ND ND ND ND
COC(=O)C1=C(C)N(C2CCCCC2)C(=O)/C1=C\c1cccs1 [Compound 22] | 27.01 | 98.84 | 37.54 | 70.26 | 57.22 | 132.82
COC(=O)C1=C(C)N(c2ccccc2)/C(=C/c2cccs2)C1=O [2008, K19] |  | −0.46 ND ND ND ND |  | −0.61 ND ND ND ND |  | 2.43 ND ND ND ND
Cc1ccc2c(c1)c1nc3ccccc3nc1n2C(C)C [Compound 41] |  | 106.90 |  | 200.51 |  | 0.31
